Laboratory results taken from patent US6620593B1, “Method for safety evaluation of chemical compound using recombinant yeast expressing human cytochrome P450” (Sumitomo Chemical Company, Limited, priority 1993, dated 2003).
Where two headings read alike, the source gives them in different places.

Experiments:
human P450 1A2 [1] = target: T1, human P450 1A2 (Homo sapiens, UniProt P05177); experiment: Metabolism (hydroxylation) of substrates using transformed yeast cells or their microsomal fractions expressing human P450 1A2 and yeast NADPH-P450 reductase; conditions: microsomes
T1 sequence (P05177 1-516): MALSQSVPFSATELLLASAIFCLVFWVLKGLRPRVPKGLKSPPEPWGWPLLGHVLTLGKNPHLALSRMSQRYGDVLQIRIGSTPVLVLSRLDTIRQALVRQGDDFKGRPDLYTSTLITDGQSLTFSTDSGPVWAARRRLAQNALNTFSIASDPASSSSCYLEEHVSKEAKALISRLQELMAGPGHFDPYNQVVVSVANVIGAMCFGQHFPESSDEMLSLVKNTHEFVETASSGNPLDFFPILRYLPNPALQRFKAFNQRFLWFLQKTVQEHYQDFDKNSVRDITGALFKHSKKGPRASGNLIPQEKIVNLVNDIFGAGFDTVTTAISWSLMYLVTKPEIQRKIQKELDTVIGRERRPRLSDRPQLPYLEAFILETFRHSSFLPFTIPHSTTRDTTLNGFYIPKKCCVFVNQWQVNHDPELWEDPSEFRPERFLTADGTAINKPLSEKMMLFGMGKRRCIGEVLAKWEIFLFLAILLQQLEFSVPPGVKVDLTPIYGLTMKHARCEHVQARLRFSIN
Method: (§1) Then 2 ml of dichloromethane was added.

human P450 2C9 = human P450 2C9 (Homo sapiens, UniProt P11712); experiment: Metabolism (hydroxylation) of substrates using transformed yeast cells or microsomal fractions expressing human P450 2C9; conditions: microsomes
Method: as §1

human P450 2E1 [2] = target: T2, human P450 2E1 (Homo sapiens, UniProt P05181); experiment: Metabolism (hydroxylation) of substrates using transformed yeast cells or microsomal fractions expressing human P450 2E1; conditions: microsomes
Method: as §1

human P450 3A4 = experiment: Metabolism (hydroxylation) of substrates using transformed yeast cells or microsomal fractions expressing human P450 3A4; conditions: microsomes
Method: as §1

human P450 2A6 = experiment: Metabolism (hydroxylation) of substrates using transformed yeast cells or microsomal fractions expressing human P450 2A6; conditions: microsomes
Method: as §1

human P450 2B6 = target: T3, human P450 2B6 (Homo sapiens, UniProt P20813); experiment: Metabolism (hydroxylation) of substrates using transformed yeast cells or microsomal fractions expressing human P450 2B6; conditions: microsomes
T3 sequence (P20813 1-491): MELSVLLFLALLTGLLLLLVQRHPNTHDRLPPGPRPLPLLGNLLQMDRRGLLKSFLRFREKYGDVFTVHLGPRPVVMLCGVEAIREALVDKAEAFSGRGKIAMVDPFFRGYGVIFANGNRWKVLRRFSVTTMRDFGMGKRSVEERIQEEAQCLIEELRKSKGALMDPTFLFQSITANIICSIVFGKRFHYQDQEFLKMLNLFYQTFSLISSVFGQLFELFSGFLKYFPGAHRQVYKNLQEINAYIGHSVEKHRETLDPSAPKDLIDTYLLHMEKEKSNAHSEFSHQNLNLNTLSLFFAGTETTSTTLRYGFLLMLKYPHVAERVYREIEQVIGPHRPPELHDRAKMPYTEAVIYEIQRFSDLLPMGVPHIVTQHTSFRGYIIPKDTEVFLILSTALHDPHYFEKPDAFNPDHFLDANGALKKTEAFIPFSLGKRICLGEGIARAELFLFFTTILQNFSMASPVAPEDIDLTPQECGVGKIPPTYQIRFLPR
Method: as §1

human P450 2C8 = experiment: Metabolism (hydroxylation) of substrates using transformed yeast cells or microsomal fractions expressing human P450 2C8; conditions: microsomes
Method: as §1

human P450 2C18 = target: T4, human P450 2C18 (Homo sapiens, UniProt P33260); experiment: Metabolism (hydroxylation) of substrates using transformed yeast cells or microsomal fractions expressing human P450 2C18; conditions: microsomes
T4 sequence (P33260 26-490): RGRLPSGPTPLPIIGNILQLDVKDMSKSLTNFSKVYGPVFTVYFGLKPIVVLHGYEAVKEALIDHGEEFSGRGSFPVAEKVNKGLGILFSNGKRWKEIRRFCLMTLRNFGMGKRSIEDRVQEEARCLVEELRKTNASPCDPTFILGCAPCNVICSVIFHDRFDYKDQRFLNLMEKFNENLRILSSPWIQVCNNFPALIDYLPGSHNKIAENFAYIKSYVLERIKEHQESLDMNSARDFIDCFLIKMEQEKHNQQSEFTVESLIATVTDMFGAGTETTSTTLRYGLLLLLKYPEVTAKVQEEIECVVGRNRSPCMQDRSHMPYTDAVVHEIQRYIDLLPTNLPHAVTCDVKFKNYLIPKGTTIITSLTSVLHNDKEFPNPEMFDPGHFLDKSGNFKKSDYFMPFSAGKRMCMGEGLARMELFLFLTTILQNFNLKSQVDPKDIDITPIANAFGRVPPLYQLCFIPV
Method: as §1

human P450 2C19 = human P450 2C19 (Homo sapiens, UniProt P33261); experiment: Metabolism (hydroxylation) of substrates using transformed yeast cells or microsomal fractions expressing human P450 2C19; conditions: microsomes
Method: as §1

human P450 2D6 = experiment: Metabolism (hydroxylation) of substrates using transformed yeast cells or microsomal fractions expressing human P450 2D6; conditions: microsomes
Method: as §1

human P450 1A1 = target: T5, human P450 1A1 (Homo sapiens, UniProt P04798); conditions: microsomes
T5 sequence (P04798 1-512): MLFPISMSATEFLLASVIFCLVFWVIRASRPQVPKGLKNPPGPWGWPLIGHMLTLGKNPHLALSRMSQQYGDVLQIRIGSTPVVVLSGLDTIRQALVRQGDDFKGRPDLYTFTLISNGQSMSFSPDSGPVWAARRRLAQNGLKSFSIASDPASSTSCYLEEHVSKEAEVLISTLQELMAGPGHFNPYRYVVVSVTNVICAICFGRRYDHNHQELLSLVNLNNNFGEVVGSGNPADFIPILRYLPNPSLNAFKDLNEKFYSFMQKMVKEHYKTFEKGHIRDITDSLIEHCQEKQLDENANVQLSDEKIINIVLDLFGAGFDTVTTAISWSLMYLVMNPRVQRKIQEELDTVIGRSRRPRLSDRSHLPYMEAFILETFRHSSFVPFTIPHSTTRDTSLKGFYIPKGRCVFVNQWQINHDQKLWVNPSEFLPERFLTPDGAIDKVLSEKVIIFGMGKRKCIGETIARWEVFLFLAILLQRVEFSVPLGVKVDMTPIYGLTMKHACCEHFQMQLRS
Method: (§5) To the supernatant, 2 ml of dichloromethane was added. After sufficient stirring, the dichloromethane layer was recovered by centrifugation (5000×g, 10 min), and the solvent was evaporated under reduced pressure. The resultant residue was dissolved in 100 μl of acetonitrile, and the solution was analyzed by HPLC under the following conditions.
(§6) Then 2 ml of dichloromethane was added. After sufficient stirring, the solution was centrifuged again (5000×g, 10 min). The dichloromethane layer was recovered from the separated layer and the solvent was evaporated under reduced pressure. The resultant residue was dissolved in 100 μl of acetonitrile, and the solution was analyzed by HPLC under the following conditions.
Then 2 ml of dichloromethane was added to the supernatant and vigorously stirred and centrifuged (5000×g, 10 min). The dichloromethane layer was recovered from the separated layer, then evaporated under reduced pressure. The obtained residue was dissolved in 100 μl of acetonitrile, and the solution was analyzed by HPLC under the following conditions.
Then 2 ml of dichloromethane was added to the solution, and the solution was stirred vigorously and centrifuged (15,000×g, 5 min). The dichloromethane layer was recovered, and the solvent was removed under reduced pressure. The obtained residue was dissolved in 100 μl of acetonitrile and the solution was subjected to analysis by HPLC under the same conditions as above.
Then the solution was centrifuged (5000×g, 10 min) to give a supernatant. The obtained supernatant solution was subjected to the HPLC analysis under the following conditions.
(§7) Then the solution was centrifuged (5000×g, 10 min) to give a supernatant. 62.5 μl of 15% trichloroacetic acid and 2 ml of chloroform were added to the obtained supernatant solution, and the resultant solution was stirred well. The chloroform layer was recovered from the separated layer. Then 4 ml of sodium hydroxide solution containing 0.1 M NaCl was added to the solution and centrifuged again (5000×g, 10 min).
Then perchlorate was added to the solution, so that the final concentration of the perchlorate was 10% (v/v). The solution was sufficiently stirred and centrifuged (15,000×g, 15 min) to give the supernatant. The obtained supernatant was subjected to HPLC analysis according to the following conditions.
Then the solution was diluted with equal volume of methanol, sufficiently stirred and centrifuged (15,000×g, 5 min) to give the supernatant. The obtained supernatant was subjected to HPLC analysis according to the following conditions.

human P450 2E1 [3] = target: T2, human P450 2E1; experiment: Ames test using yeast S-9 Mix fraction and microsomal fraction, human P450 2E1 as metabolic activation source; format: cell-based
From the text: (§2) The toxic effects, in particular mutagenicity, of the resulting metabolites can be determined by a conventional biological analytic method such as the Ames Test. For example, the metabolites present in the reaction solution are allowed to react with mutant bacteria such as histidine requiring Salmonella strain (Salmonella typhimurium (his−)), or tryptophan requiring Escherichia coil (Escherichia coil (trp−)), and then determine whether the metabolites cause the back mutation of the bacteria whether the colonies of revertant which is not requiring the amino acid (His+ or Trp+) are formed, and, if formed, how many colonies. In place of the bacteria, mammalian cells such as MCL-5 cells, which are sensitive to cell toxicity of a chemical compound (U.S. Pat. No. 4,532,204), can be used.
(§3) The Ames test method was in accordance with the customary method described, for example, in Mutat. Res., (1975) 31, 347. 2-Aminoanthrathene which is an arylamine type compound was used as a specimen compound. (1) Rat S-9 Mix supernatant fraction (obtained by homogenizing liver and then subjected to centrifugation (9000×g, 10 min), manufactured by Kikkoman) containing each kind of rat P450 molecular species at the concentration of 1200 pmol per 1 sample and (2) Yeast S-9 Mix fraction obtained from each kind of yeast cells expressing human P450 or a microsomal fraction prepared from the yeast S-9 Mix fraction were used as a metabolic activation source in the Ames test.

[4] = system: human cytochrome P450 3A4; experiment: Ames test using yeast S-9 Mix fraction and microsomal fraction, human P450 3A4 as metabolic activation source; format: cell-based
From the text: as §2
(§4) The Ames test method was in accordance with the customary method described, for example, in Mutat. Res., (1975) 31, 347. 2-Aminoanthrathene which is an arylamine type compound was used as a specimen compound. […]

[5] = target: T6, human cytochrome P450 2C8 (Homo sapiens, UniProt P10632); experiment: Ames test using yeast S-9 Mix fraction and microsomal fraction, human P450 2C8 as metabolic activation source; format: cell-based
T6 construct: The entire protein coding region of the P450 2C8 gene was amplified by the PCR method; made in house; host or cells: Saccharomyces cerevisiae AH22 (whole transformed cells, S-9 Mix or microsomal fractions)
T6 sequence (P10632 1-490): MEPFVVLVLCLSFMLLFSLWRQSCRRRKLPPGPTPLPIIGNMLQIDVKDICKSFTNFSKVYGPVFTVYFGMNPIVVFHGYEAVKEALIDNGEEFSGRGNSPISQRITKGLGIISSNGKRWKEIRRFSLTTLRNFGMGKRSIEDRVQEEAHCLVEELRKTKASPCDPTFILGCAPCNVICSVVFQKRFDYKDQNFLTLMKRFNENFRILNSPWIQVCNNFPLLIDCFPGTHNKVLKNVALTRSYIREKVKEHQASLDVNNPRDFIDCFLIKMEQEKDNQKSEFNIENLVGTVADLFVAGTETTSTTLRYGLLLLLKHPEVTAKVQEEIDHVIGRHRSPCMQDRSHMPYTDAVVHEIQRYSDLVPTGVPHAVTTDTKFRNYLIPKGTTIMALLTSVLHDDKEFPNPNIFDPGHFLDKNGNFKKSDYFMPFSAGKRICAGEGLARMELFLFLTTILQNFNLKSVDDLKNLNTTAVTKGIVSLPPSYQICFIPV
From the text: as §2, §4

[6] = system: human cytochrome P450 2A6; experiment: Ames test using yeast S-9 Mix fraction and microsomal fraction, human P450 2A6 as metabolic activation source; format: cell-based
From the text: as §2, §4

human P450 1A2 [7] = target: T1, human P450 1A2; experiment: Ames test using yeast S-9 Mix fraction and microsomal fraction, human P450 1A2 as metabolic activation source; format: cell-based; set-up: made in house; host or cells: Saccharomyces cerevisiae AH22 (whole transformed cells, S-9 Mix or microsomal fractions)
From the text: as §2, §3

[8] = system: other human P450 molecular species
Method: as §5, §6, §7
Then perchlorate was added to the solution, so that the final concentration of the perchlorate was 10% (v/v). The solution was sufficiently stirred and centrifuged (15,000×g, 15 min) to give the supernatant. […]

[9] = Table 1 hydroxylation activity, metabolic activation in Ames test
[10] = compound at 1 μg/plate (90 mm dia.), yeast S-9 Mix fraction and microsomal fraction

T2 sequence (P05181 whole entry): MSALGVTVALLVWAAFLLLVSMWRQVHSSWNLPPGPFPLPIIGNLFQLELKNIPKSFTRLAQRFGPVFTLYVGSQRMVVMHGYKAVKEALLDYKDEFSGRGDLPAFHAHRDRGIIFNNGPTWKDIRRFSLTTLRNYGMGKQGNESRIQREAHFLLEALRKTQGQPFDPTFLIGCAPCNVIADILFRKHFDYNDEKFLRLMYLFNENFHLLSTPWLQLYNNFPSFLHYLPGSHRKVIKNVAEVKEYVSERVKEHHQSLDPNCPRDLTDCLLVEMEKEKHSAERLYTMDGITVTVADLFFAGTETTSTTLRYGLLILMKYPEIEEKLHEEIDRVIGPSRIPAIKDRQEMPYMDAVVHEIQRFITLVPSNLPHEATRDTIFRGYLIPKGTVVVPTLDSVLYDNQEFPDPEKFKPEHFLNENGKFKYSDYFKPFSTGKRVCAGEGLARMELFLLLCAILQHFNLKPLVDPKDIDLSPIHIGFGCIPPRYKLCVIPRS
Sequence of human P450 2C9 (P11712 whole entry): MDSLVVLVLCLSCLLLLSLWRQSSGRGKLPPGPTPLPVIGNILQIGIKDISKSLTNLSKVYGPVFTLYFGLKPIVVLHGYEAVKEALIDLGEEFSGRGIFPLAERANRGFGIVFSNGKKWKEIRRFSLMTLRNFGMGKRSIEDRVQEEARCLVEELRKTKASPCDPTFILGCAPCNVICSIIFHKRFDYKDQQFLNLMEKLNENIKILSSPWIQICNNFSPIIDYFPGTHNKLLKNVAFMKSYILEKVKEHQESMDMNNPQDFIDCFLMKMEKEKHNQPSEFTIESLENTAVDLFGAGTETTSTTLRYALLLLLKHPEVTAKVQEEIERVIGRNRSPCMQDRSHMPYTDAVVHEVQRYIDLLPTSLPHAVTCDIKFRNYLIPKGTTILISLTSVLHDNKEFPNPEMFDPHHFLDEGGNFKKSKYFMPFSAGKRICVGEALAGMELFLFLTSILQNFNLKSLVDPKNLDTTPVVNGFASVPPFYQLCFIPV
Sequence of human P450 2C19 (P33261 whole entry): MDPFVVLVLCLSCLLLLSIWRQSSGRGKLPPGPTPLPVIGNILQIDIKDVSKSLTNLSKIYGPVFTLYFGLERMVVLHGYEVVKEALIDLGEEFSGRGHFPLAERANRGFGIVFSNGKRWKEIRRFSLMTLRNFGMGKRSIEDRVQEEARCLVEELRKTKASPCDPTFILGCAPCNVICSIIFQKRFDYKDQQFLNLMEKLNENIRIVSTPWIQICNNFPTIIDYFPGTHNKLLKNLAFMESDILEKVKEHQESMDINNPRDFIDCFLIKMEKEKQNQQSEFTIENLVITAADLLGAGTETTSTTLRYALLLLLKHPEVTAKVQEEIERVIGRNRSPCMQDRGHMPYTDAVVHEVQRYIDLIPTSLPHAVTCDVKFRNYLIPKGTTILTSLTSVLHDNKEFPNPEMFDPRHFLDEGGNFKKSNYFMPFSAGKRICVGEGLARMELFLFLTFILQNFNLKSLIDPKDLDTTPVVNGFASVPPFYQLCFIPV

SMILES | Hydroxylation activity, human P450 1A2 (human P450 1A2 [1]) | Hydroxylation activity, human P450 2C9 (human P450 2C9) | Hydroxylation activity, human P450 2E1 (human P450 2E1 [2]) | Hydroxylation activity, human P450 3A4 (human P450 3A4) | Hydroxylation activity, human P450 2A6 (human P450 2A6) | Hydroxylation activity, human P450 2B6 (human P450 2B6) | Hydroxylation activity, human P450 2C8 (human P450 2C8) | Hydroxylation activity, human P450 2C18 (human P450 2C18) | Hydroxylation activity, human P450 2C19 (human P450 2C19) | Hydroxylation activity, human P450 2D6 (human P450 2D6) | Hydroxylation activity, human P450 1A1 (human P450 1A1) | also measured
CCOc1ccc2ccc(=O)oc2c1 [7-Ethoxycoumarin] | + + | + | + + | + | + + | + + + | + | + | + | + + | + + + | 
Nc1ccc2cc3ccccc3cc2c1 [2-Aminoanthracene] |  |  |  |  |  |  |  |  |  |  |  | Ames test activity in words, human P450 2E1 (human P450 2E1 [3]): moderate activity; Activity in Table 1 for 2-aminoanthracene (Ames test), human P450 2E1 (human P450 2E1 [3]; [9]): + +; Revertant colonies detected, yeast expressing human P450 2E1 (AH22/p2E1R) (human P450 2E1 [3]; [10]): more than 1000 revertant colonies; Ames test revertant colonies in words, human cytochrome P450 3A4 [4]: not found; Activity in Table 1 for 2-aminoanthracene (Ames test), human P450 3A4 [4, 9]: −; Ames test revertant colonies in words, human cytochrome P450 2C8 [5]: not found; Activity in Table 1 for 2-aminoanthracene (Ames test), human P450 2C8 [5, 9]: −; Ames test revertant colonies in words, human cytochrome P450 2A6 [6]: not found; Activity in Table 1 for 2-aminoanthracene (Ames test), human P450 2A6 [6, 9]: −; Ames test activity in words, human cytochrome P450 1A2 (human P450 1A2 [7]): high activity; Concentration at which mutagenicity can be detected (human P450 1A2 [7]; 20 pmol of P450 1A2 used): about 0.1 μg; Activity in Table 1 for 2-aminoanthracene (Ames test), human P450 1A2 (human P450 1A2 [7]; [9]): + + +; Revertant colonies detected, yeast expressing human P450 1A2 (AH22/p1A2R) (human P450 1A2 [7]; [10]): more than 1000 revertant colonies
CCCCNC(=O)NS(=O)(=O)c1ccc(C)cc1 [Tolbutamide] | − |  | − |  | − | − | + | + | + + | − | − | Hydroxylated metabolite / hydroxylation activity with yeast expressing other human P450 than those named ([8]; microsomes): not detected
O=c1ccc2ccccc2o1 [Coumarin] | − | − | − | − | + + + | − | − | − | − | − | − | Hydroxylated metabolite / hydroxylation activity with yeast expressing other human P450 than those named [8]: no activity
CC(=O)Nc1ccccc1 [Acetanilide] | + + + | + + | + + | + | + + | + + | + + | + + | + + | + + + | + + | 
